pEC50, pIC50: −log10 of the molar value. Calls of active or inactive are those of the source. The rule behind the calls is not given here.
Experiments:
CCRF-CEM [1] = test: Inhibitory concentration for spectrum antiviral activity against herpes viruses; assay type: functional, cell-based; conditions: Homo sapiens
CCRF-CEM [2] = test: Test was to evaluate selectivity against individual tumor cell line Leukemia (CCRF-CEM); assay type: functional; conditions: Homo sapiens
CCRF-CEM [3] = test: In vitro anti-HIV screen using HIV-1 infected CD4 lymphocytes (CEM cell line), determines cytotoxicity; assay type: functional, cell-based; conditions: Homo sapiens
Human gammaherpesvirus 4 = test: In vitro antiviral activity against Epstein Barr virus (EBV) was determined; assay type: functional, organism-based
Human alphaherpesvirus 1 = test: In vitro antiviral activity against Herpes simplex virus (HSV-1) was determined; assay type: functional, organism-based
Human alphaherpesvirus 2 = test: In vitro antiviral activity against Herpes simplex virus (HSV-2) was determined; assay type: functional, organism-based
M19-MEL [4] = test: est was to evaluate selectivity against individual tumor cell line Melanoma (M19-MEL); assay type: functional; conditions: Homo sapiens
Malme-3M [5] = test: est was to evaluate selectivity against individual tumor cell line Melanoma (MALME-3M); assay type: functional; conditions: Homo sapiens
NCI-H522 = test: Test was to evaluate selectivity against individual tumor cell line Non small cell lung cancer (NCI-H522); assay type: functional; conditions: Homo sapiens
SF-268 = test: Test was to evaluate selectivity against individual tumor cell line CNS cancer (SF-268); assay type: functional; conditions: Homo sapiens
Human betaherpesvirus 5 = test: In vitro antiviral activity against Human cytomegalovirus (HCMV) was determined; assay type: functional, organism-based
RPMI-8226 = test: Test was to evaluate selectivity against individual tumor cell line Leukemia (RPMI-8226); assay type: functional; conditions: Homo sapiens
SK-MEL-5 [6] = test: est was to evaluate selectivity against individual tumor cell line Melanoma (SK-MEL-5); assay type: functional; conditions: Homo sapiens
CAKI-1 = test: Test was to evaluate selectivity against individual tumor cell lines Renal cancer (CAKI-1); assay type: functional; conditions: Homo sapiens
DMS-114 = test: Test was to evaluate selectivity against individual tumor cell lines Small cell lung cancer (DMS114); assay type: functional; conditions: Homo sapiens
M19-MEL [7] = test: Test was to evaluate selectivity against individual tumor cell lines Melanoma (M19-MEL); assay type: functional; conditions: Homo sapiens
Malme-3M [8] = test: Test was to evaluate selectivity against individual tumor cell lines Melanoma (MALME-3M); assay type: functional; conditions: Homo sapiens
SK-MEL-5 [9] = test: Test was to evaluate selectivity against individual tumor cell lines Melanoma (SK-MEL-5); assay type: functional; conditions: Homo sapiens
Human alphaherpesvirus 3 = test: In vitro antiviral activity against Varicella zoster virus (VZV) was determined; assay type: functional, organism-based
Tumor Cell line = test: Test was to evaluate selectivity against individual tumor cell lines; NS= No selectivity; assay type: functional, cell-based; conditions: Homo sapiens

Structure (SMILES)	pIC50 (CCRF-CEM [1])	GI50 (CCRF-CEM [2])	pIC50 (CCRF-CEM [3])	pEC50 (Human gammaherpesvirus 4)	pEC50 (Human alphaherpesvirus 1)	pEC50 (Human alphaherpesvirus 2)	GI50 (M19-MEL [4])	GI50 (Malme-3M [5])	GI50 (NCI-H522)	GI50 (SF-268)	pEC50 (Human betaherpesvirus 5)	GI50 (RPMI-8226)	GI50 (SK-MEL-5 [6])	GI50 (CAKI-1)	GI50 (DMS-114)	GI50 (M19-MEL [7])	GI50 (Malme-3M [8])	GI50 (SK-MEL-5 [9])	pEC50 (Human alphaherpesvirus 3)	Activity (Tumor Cell line)
[N-]=[N+]=NC1C(Cl)C(=O)NC(=O)N1[C@H]1C[C@H](O)[C@@H](CO)O1 (some centres undefined)	4.26	26.3 µM	< 3.49	5.01	6.48	5.80	52.4 µM	13.1 µM	5.37 µM	93.3 µM	4.54	72.4 µM	12.3 µM	–	–	–	–	–	–	–
Nc1nc2c(ncn2COCCO)c(=O)[nH]1 [ACYCLOVIR]	–	–	< 3.36	5.40	5.51	5.21	–	–	–	–	–	–	–	–	–	–	–	–	–	–
[N-]=[N+]=NC1C(Br)C(=O)NC(=O)N1[C@H]1C[C@H](O)[C@@H](CO)O1 (some centres undefined)	5.13	38 µM	3.90	4.34	5.08	5.47	–	–	–	–	4.94	19.6 µM	–	66.3 µM	90.9 µM	91.5 µM	15.5 µM	42.2 µM	4.04	–
O=c1[nH]c(=O)n([C@H]2C[C@H](O)[C@@H](CO)O2)cc1Cl [CHLORODEOXYURIDINE]	–	–	–	–	4.82	–	–	–	–	–	–	–	–	–	–	–	–	–	–	–
CC1(Cl)C(=O)NC(=O)N([C@H]2C[C@H](O)[C@@H](CO)O2)C1N=[N+]=[N-] (some centres undefined)	3.87	–	3.95	< 4.90	< 3.50	< 3.50	–	–	–	–	< 4.30	–	–	–	–	–	–	–	–	inactive
CC1(Br)C(=O)NC(=O)N([C@H]2C[C@H](O)[C@@H](CO)O2)C1N=[N+]=[N-] (some centres undefined)	3.85	–	4.14	4.80	< 3.56	< 3.56	–	–	–	–	4.82	–	–	–	–	–	–	–	3.98	inactive
Nc1nc2c(ncn2COC(CO)CO)c(=O)[nH]1 [GANCICLOVIR]	–	–	< 3.41	–	–	–	–	–	–	–	6.11	–	–	–	–	–	–	–	–	–
